Results: ChEMBL document CHEMBL1148079, “Zarzissine, a new cytotoxic guanidine alkaloid from the Mediterranean sponge Anchinoe paupertas” (J Nat Prod, 1994)
In brackets after ≈: the same amount, converted by molar mass.

Assays:
[1] = test system: Staphylococcus aureus; test: Antimicrobial activity against Staphylococcus aureus at 100 ug after 18 hrs by paper disk agar diffusion method; assay type: functional; details: read-out: IZ
[2] = test system: Candida albicans; test: Antimicrobial activity against Candida albicans at 100 ug after 18 hrs by paper disk agar diffusion method; assay type: functional; details: read-out: IZ
[3] = test system: Candida tropicalis; test: Antimicrobial activity against Candida tropicalis at 100 ug after 18 hrs by paper disk agar diffusion method; assay type: functional; details: read-out: IZ
[4] = Cytotoxicity against human NSCLC-N6 cells after 72 hrs by MTT assay; assay type: functional, cell-based; details: NSCLC-N6, 72 h
[5] = test system: KB; test: Cytotoxicity against human KB cells after 72 hrs by MTT assay; assay type: functional, cell-based
[6] = test system: P388; test: Cytotoxicity against mouse P388 cells after 72 hrs by MTT assay; assay type: functional, cell-based; details: P388, 72 h

| SMILES | zone of inhibition at 100 µg/disc [1] [mm] | zone of inhibition at 100 µg/disc [2] [mm] | zone of inhibition at 100 µg/disc [3] [mm] | IC50 [4] [µg/mL] | IC50 [5] [µg/mL] | IC50 [6] [µg/mL] |
| --- | --- | --- | --- | --- | --- | --- |
| Nc1nc2cnncc2[nH]1 | 12 | 10 | 11 | 10 (≈ 74 µM) | 5 (≈ 37 µM) | 12 (≈ 88.8 µM) |
| O=Cc1ccc(O)cc1 [4-HYDROXYBENZALDEHYDE] | 8 | 7 | 7 |  |  |  |
